Assay results published in ChEMBL document CHEMBL6103671, “Novel Piperazine Derivatives as Selective Antagonists of GluN2B-Containing NMDARs under Acidic pH Conditions” (ACS Med Chem Lett, 2025).

How the values were obtained:
Type in all cases: cell-based
[1] = Antagonist activity at human GluN1-1a/[…] receptor expressed in Xenopus laevis oocytes assessed as inhibition of glutamate/glycine-induced current at pH 6.9 with -40 mV holding potential by two-electrode voltage-clamp method; settings: Oocyte
[2] = Antagonist activity at human GluN1-1a/[…] receptor expressed in Xenopus laevis oocytes assessed as inhibition of glutamate/glycine-induced current at pH 7.6 with -40 mV holding potential by two-electrode voltage-clamp method; settings: Oocyte
Oocyte = assay: Selectivity ratio of IC50 for antagonist activity at human GluN1-1a/GluN2A receptor expressed in Xenopus laevis oocytes at pH 7.6 to antagonist activity at human GluN1-1a/GluN2A receptor expressed in Xenopus laevis oocytes at pH 6.9

Structure (SMILES)	IC50 [1]	IC50 [2]	Ratio IC50 (Oocyte)
NC(=O)Nc1ccc(OC[C@@H](O)CN2CCN(c3ccc(Cl)c(Cl)c3)CC2)cc1	103 nM	947 nM	9.2
NC(=O)Nc1ccc(OC[C@H](O)CN2CCN(c3ccc(Cl)cc3)CC2)cc1	19 nM	60 nM	3.2
NC(=O)Nc1ccc(OC[C@@H](O)CN2CCN(c3ccc(Cl)cc3)CC2)cc1	46 nM	452 nM	9.8
NC(=O)Nc1ccc(OC[C@H](O)CN2CCN(c3ccc(Cl)c(Cl)c3)CC2)cc1	30 nM	132 nM	4.4

The next lines start with the values.

IC50 [1]	IC50 [2]	Ratio IC50 (Oocyte)	Structure (SMILES)
111 nM	717 nM	6.5	O=C1CCc2cc(OC[C@@H](O)CN3CCN(c4ccc(C(F)(F)F)cc4)CC3)ccc2N1
23 nM	142 nM	6.2	O=C1CCc2cc(OC[C@H](O)CN3CCN(c4ccc(C(F)(F)F)cc4)CC3)ccc2N1 [NP-10679]
